From patent US20240229155A1, “M[…] FOR THE TREATMENT OF GLIOBLASTOMA AND OTHER CANCERS” (Duke University, priority 2021, published 2024)
“Also recorded” adds a separate entry of the source.

Key:
[1] = test system: STING (TMEM173) mRNA; experiment: STING mRNA expression (qPCR) after decitabine treatment of GBM cell lines; assay type: cell-based, human; settings: 250 nM decitabine for 5 days vs DMSO, normalized to beta actin
Method: (§1) Decitabine Treatment: Decitabine was dissolved in DMSO to produce a stock concentration of 10 mM. This stock concentration was diluted directly before each treatment at a 1:100 ratio with 1×PBS to create the working solution with a concentration of […].
(§2) Cells were seeded at density of 30,000 cells/well in 6-well plates. Each cell line was seeded in 2 mL of the same media in which they were cultured (cells were cultured in media according to ATCC). The following day (Day 0), a volume of decitabine working solution was added directly to the wells to reach the desired concentration. […]
Protocol for mRNA Expression: RNA expression was measured by converting 250 ng to lug of RNA to cDNA with the iScript cDNA conversion kit (BioRad Cat #1708891) in 20 μL total. […]
20× PrimePCR Primers targeting B-actin (BioRad #qHsa CED0036269), and TMEM173 (BioRad #qHsa CID00010565), were used. Fold change (2^(−Delta Delta Ct) was calculated using B-actin as the housekeeping gene.
Quantitative gene expression analysis: RNA/DNA were co-extracted from cells using Qiagen AllPrep DNA/RNA/miRNA Universal Kit mini kit (Qiagen) for decitabine experiments, and Quick-DNA/RNA™Miniprep Kit for baseline cell expression/methylation, following the manufacturer's protocols. RNA expression was measured by converting 250 ng to 1 μg RNA to 25 cDNA with the iScript cDNA conversion kit (BioRad). […]

[2] = target: T1, DNMT1 (Homo sapiens, UniProt P26358); experiment: Western blot of DNMT1 after decitabine treatment of GBM cell lines; assay type: cell-based; settings: 250 nM decitabine for 5 days vs DMSO; GBM cell lines with high STING promoter methylation
T1 construct: Western blot analysis showing DNMT1 and STING expression following decitabine or DMSO treatment; endogenous in cells; host or cells: GBM/glioma cell lines
T1 sequence (P26358 whole entry): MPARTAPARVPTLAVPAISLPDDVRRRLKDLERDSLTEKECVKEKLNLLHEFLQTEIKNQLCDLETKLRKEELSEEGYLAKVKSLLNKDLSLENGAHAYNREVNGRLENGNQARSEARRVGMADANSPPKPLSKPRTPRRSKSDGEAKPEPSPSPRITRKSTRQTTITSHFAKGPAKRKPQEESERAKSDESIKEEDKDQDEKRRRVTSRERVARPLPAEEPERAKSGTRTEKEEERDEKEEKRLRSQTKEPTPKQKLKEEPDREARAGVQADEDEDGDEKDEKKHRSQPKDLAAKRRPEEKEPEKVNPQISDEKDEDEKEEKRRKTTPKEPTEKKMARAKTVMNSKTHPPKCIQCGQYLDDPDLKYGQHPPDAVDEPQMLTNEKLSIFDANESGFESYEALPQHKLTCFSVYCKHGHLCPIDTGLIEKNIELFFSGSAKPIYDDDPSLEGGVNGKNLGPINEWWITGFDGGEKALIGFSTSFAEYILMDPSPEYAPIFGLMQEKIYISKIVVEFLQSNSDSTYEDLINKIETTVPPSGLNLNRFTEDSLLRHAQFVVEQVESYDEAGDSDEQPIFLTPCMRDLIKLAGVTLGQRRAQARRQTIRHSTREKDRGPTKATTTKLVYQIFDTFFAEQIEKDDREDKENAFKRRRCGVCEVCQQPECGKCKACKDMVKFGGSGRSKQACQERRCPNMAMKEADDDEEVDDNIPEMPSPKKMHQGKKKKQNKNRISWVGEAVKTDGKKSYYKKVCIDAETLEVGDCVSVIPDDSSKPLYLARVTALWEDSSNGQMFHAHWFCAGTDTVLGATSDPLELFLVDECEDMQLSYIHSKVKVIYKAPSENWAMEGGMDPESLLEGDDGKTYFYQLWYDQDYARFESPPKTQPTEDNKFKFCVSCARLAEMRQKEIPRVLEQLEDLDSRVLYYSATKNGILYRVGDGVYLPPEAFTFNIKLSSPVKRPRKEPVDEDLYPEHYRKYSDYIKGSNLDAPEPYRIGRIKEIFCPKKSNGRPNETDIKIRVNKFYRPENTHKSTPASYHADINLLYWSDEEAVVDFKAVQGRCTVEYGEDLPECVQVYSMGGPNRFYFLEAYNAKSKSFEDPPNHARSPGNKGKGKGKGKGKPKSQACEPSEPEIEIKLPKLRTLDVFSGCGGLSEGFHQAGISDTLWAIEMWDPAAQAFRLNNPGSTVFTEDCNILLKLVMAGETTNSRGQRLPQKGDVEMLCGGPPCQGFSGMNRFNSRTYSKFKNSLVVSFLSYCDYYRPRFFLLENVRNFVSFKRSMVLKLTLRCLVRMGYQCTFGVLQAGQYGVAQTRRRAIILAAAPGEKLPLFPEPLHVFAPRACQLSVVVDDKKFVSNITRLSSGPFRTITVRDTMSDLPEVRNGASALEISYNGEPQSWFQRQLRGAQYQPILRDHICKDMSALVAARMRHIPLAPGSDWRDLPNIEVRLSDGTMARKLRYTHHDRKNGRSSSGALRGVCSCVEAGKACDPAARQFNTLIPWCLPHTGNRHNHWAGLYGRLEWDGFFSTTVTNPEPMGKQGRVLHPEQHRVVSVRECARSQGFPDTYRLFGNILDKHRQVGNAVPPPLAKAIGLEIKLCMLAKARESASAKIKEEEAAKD
Method: (§3) Cells were seeded at density of 30,000 cells/well in 6-well plates. Each cell line was seeded in 2 mL of the same media in which they were cultured (cells were cultured in media according to ATCC). The following day (Day 0), a volume of decitabine working solution was added directly to the wells to reach the desired concentration. In the DMSO control wells, DMSO was diluted 1:100 in PBS, with the same amount of DMSO:PBS solution added as that of the decitabine condition. On days 1-5, the media was refreshed, such that the media being added to the wells contained the respective decitabine/DMSO concentration and were prepared immediately before their addition. The cells were harvested for protein on day 6.
(§4) Western Blots: Cells were washed 2× with ice cold 1×PBS and lysed on ice with RIPA lysis buffer, containing protease/phosphatase inhibitors, and benzonase. Lysates were spun down for 15 min 14,000×g at 4 degrees C. Protein was denatured, ran on 4-12% NuPage Bis-Tris gels in 1×MOPS buffer, and transferred to PVDF membrane. The membrane was blocked in 5% Blotting grade blocker (BioRad 170-6404) dissolved in 1×TBS 0.1% TWEEN. Primary antibody was added according to manufacturer's protocol and incubated overnight at 4° C. Membranes were then incubated with secondary HRP antibody and screened with Supersignal Pico ECL. […]

[3] = test system: CpG sites in a ~400 nucleotide window centered on cg16983159; experiment: Semi-quantitative methylation sequencing assay of bisulfite-treated glioma cell lines; assay type: cell-based, human; settings: LN229 and U138 cells, decitabine vs DMSO
Method: Semi-quantitative methylation sequencing assay: Bisulfite treated DNA was PCR amplified for 40 cycles at 62° C. annealing temperature. Amplification reaction—10 μM of each primer, 25 mM MgCl2, 2.5 mM dNTPs, lx buffer, 0.7U HotStarTaq (Qiagen). Amplicons were sent to Azenta for purification and sanger sequencing with difficult template. Sequence traces were aligned. Percent methylation at the CpGs in the amplicons were estimated by comparing the C peak to the T peak.
(§5) Cell treatment with decitabine: Decitabine (Millipore-Sigma) was dissolved in DMSO to stock concentration of 10 mM and diluted directly before each treatment in 1×PBS. Cells were seeded at 3×10^4 cells/well in 6-well plates (protein) or 1.7×10^5 cells in 10 cm dishes (RNA/DNA). Matched concentrations of DMSO was used as a control. Media was refreshed with treatment daily for 5 days. Cells were harvested for protein, RNA and DNA on day 6, or treated with 2′3′-cGAMP for an additional 4 and 24 h and harvested for protein.

[4] = test system: STING pathway; experiment: Western blot for STING pathway activation: decitabine pretreatment followed by 2′3′-cGAMP; assay type: cell-based, human; settings: for STING pathway activation (pTBK1 and pIRF3 expression) in response to cGAMP: 250 nM decitabine for 5 days, then 2′3′-cGAMP, protein at 4 h and 24 h, cell lines previously unresponsive to cGAMP
Method: (§6) Western Blots: Cells were washed 2× with ice cold 1×PBS and lysed on ice with RIPA lysis buffer, containing protease/phosphatase inhibitors, and benzonase. Lysates were spun down for 15 min 14,000×g at 4 degrees C. Protein was denatured, ran on 4-12% NuPage Bis-Tris gels in 1×MOPS buffer, and transferred to PVDF membrane. The membrane was blocked in 5% Blotting grade blocker (BioRad 170-6404) dissolved in 1×TBS 0.1% TWEEN. Primary antibody was added according to manufacturer's protocol and incubated overnight at 4° C. Membranes were then incubated with secondary HRP antibody and screened with Supersignal Pico ECL. A ChemiDoc MP (BioRad) and an iBright 1500FL imager (ThermoFisher) were used to detect the ECL signal.
Protein Isolation and Western Blotting: Cells were washed 2× with ice cold 1×PBS and lysed on ice with RIPA lysis buffer, containing protease/phosphatase inhibitors, and benzonase. Lysates were spun down for 15 min at 14,000×g at 4° C. Protein was denatured at 95° C. for 5 min, ran on 4-12% NuPage Bis-Tris gels in 1×MOPS buffer, and transferred to PVDF membrane. The membrane was blocked in 5% Blotting grade blocker (BioRad) dissolved in 1×TBS 0.1% TWEEN20. Primary antibody was added according to manufacturer's protocol and incubated overnight at 4° C. Membranes were incubated with secondary HRP antibody (Cell Signaling) and screened with Supersignal Pico ECL (ThermoFisher). A ChemiDoc MP (BioRad) and an iBright 1500FL imager (ThermoFisher) were, used to detect the ECL signal. Primary antibodies were used to the following targets: pSTING (Ser366), STING, cGAS, pTBK1 (Ser172), TBK1, pIRF3 (Ser396), IRF3, pSTAT1 (Tyr701), STAT1, IFIT1, ISG15, DNMT1, β-actin (Cell Signaling), IRF3 (Biolegend).
as §5, with “Cells were harvested for protein, RNA and DNA on day 6, or treated with 2′3′-cGAMP for an additional 4 and 24 h and harvested for protein.” left out

[5] = test system: cGAS; experiment: Western blot of cGAS after decitabine treatment of GBM cell lines; assay type: cell-based, human; settings: 250 nM decitabine for 5 days vs DMSO
Method: as §3, §4

[6] = test system: STING promoter CpG site cg16983159; experiment: cg16983159 site-specific methylation qPCR assay after decitabine treatment of GBM cell lines; assay type: cell-based, human; settings: 250 nM decitabine for 5 days vs DMSO; GBM cell lines with high STING promoter methylation
Method: as §1
as §2, with “concentration. In the DMSO control wells, DMSO was diluted 1:100 in PBS, with the same amount of DMSO:PBS solution added as that of the decitabine condition.” for “concentration.”
STING Methylation qPCR Methods: Bisulfite conversion of 25 ng to lug gDNA was done using the EpiTect Bisulfite Kit (Qiagen 59104) following manufactures protocol. […] Percent methylation was calculated as 1/(1+1/(2^-ΔCt))×100 with ΔCt=FAM −VIC. […]
cg16983159 site-specific methylation qPCR assay: A site-specific qPCR assay for measuring cg16983159 methylation was developed using the method described by Yu et al. (Yu et al., 2019). […] Percent methylation was calculated as 100%×1/1+2ΔCt where ΔCt=FAM−VIC. […]

[7] = test system: STING; experiment: Western blot of STING after decitabine treatment of GBM cell lines; assay type: cell-based, human; settings: 250 nM decitabine for 5 days vs DMSO
Method: as §3, §4

[8] = test system: GBM tissue slice cultures; settings: ex vivo GBM tissue slice cultures (Brown et al., 2021); cited from earlier work
[9] = test system: GBM tissue slice cultures; experiment: Ex vivo GBM slice culture assay with 2′3′-cGAMP; assay type: cell-based, human; settings: 5 μg/ml, 48 h, TAMC vs tumor cells
Method: GBM slice culture assay: Surgically resected, de-identified newly diagnosed GBM tissue was acquired under a Duke IRB approved protocol within hours of resection. Slice culture studies in this manuscript are extended/additional analyses of slice culture data sets reported in a prior study where the pattern of PRR signaling vs virotherapy was compared (Brown et al., 2021). A portion (˜25%) of fresh tissue was analyzed by flow cytometry to determine relative immune cell subset densities using the following flow cytometry panel after 1:20 Human Tru-Stain FcX treatment (BioLegend): CD45-BUV395 (BD Biosciences), CD14-BV421, CD33-BV510, CD49d-BV605, HLA-DR-BV786, CD31-FITC, CD3/19-BUV737, CD11b-APC, CD16-BV711, CD15-APC-fire7, and either CD155-PE or isotype control-PE antibody (all BioLegend); viability stain (7-AAD, BioLegend) was added after staining. Fresh remaining tissue was sliced into quarters, followed by slicing to −2 mm diameter fragments with a #10 scalpel (Hill-Rom). Slices were cultured in RPMI-1640 (Invitrogen) supplemented with 10% FBS (Sigma-Aldrich), 100 ng/ml EGF (R&D Biosystems); 5 μg/ml insulin (Gibco); 100 ng/ml hydrocortisone (Sigma-Aldrich). […] Supernatant cytokines were measured using the Human Antiviral Legendplex kit and Human Pro-inflammatory Chemokine kit (both BioLegend), per manufacturer's instructions. […]

[10] = test system: GBM cell suspensions; experiment: Cytokine secretion of CD14-separated GBM cell suspensions after 2′3′-cGAMP; assay type: cell-based, human; settings: GBM cell suspensions separated by CD14; 48 h
[11] = test system: cGAS/STING DNA sensing pathway; experiment: Response of GBM cell lines to cGAS (ISD) and STING (cGAMP) agonists, Western blot; assay type: cell-based, human
Method: as §6
Protein Isolation and Western Blotting: Cells were washed 2× with ice cold 1×PBS and lysed on ice with RIPA lysis buffer, containing protease/phosphatase inhibitors, and benzonase. Lysates were spun down for 15 min at 14,000×g at 4° C. Protein was denatured at 95° C. for 5 min, ran on 4-12% NuPage Bis-Tris gels in 1×MOPS buffer, and transferred to PVDF membrane. The membrane was blocked in 5% Blotting grade blocker (BioRad) dissolved in 1×TBS 0.1% TWEEN20. Primary antibody was added according to manufacturer's protocol and incubated overnight at 4° C. Membranes were incubated with secondary HRP antibody (Cell Signaling) and screened with Supersignal Pico ECL (ThermoFisher). […]

Compound | STING mRNA expression [1] | DNMT1 expression (Western blot) [2] | methylation state of CpG sites around cg16983159 (bisulfite sequencing) [3] | STING pathway activation (pTBK1 and pIRF3 expression) in response to cGAMP [4] | STING pathway activation (pTBK1 and pIRF3 expression) in response to cGAMP ([4]; listed as decitabine) | markers of downstream IFN activation (pSTAT1, IFIT1, ISG15) ([4]; decitabine pretreatment for 5 days followed by cGAMP) | cGAS expression (Western blot) [5] | STING cg16983159 methylation [6] | STING protein expression [7] | CXCL10 induction [8] | type I IFNs induction [8] | IFIT1 induction (flow cytometry) [9] | CXCL10 induction [10] | TNF induction [10] | downstream response (pTBK1, pIRF3) to STING agonist ([11]; A172 cell line, high baseline STING expression) | downstream response (pTBK1, pIRF3) to STING agonist ([11]; U138MG cell line, no STING expression)
Nc1ncn([C@H]2C[C@H](O)[C@@H](CO)O2)c(=O)n1 [Decitabine, 5-azadeoxycytidine] | increased | significant suppression; also recorded: suppressed | cg16983159 and upstream CpG sites are demethylated, while downstream sites are not | restores STING signaling | reactivation or enhancement of the pathway | induced | induces | decreased | increased | – | – | – | – | – | – | –
Nc1nc2c(ncn2[C@@H]2O[C@@H]3COP(=O)(O)O[C@H]4[C@@H](O)[C@H](n5cnc6c(N)ncnc65)O[C@@H]4COP(=O)(O)O[C@@H]2[C@@H]3O)c(=O)[nH]1 [cGAMP, 2′3′-cGAMP] | – | – | – | – | – | – | – | – | – | induced | induced | induced selectively in TAMC | occurred only in CD14+ containing glioma cell suspensions | occurred only in CD14+ containing glioma cell suspensions | strong downstream response | failed to activate pTBK1 or pIRF3
